Assay: xn = mol fraction of the nth substance listed

NC=O + C1COCCO1
101 kPa
Details	viscosity [mPa·s]
298.15 K, x1 = 0.2556	1.492
298.15 K, x1 = 0.433	1.849
298.15 K, x1 = 0.5602	2.219
298.15 K, x1 = 0.6657	2.564
298.15 K, x1 = 0.7461	2.863
298.15 K, x1 = 0.8157	3.094
298.15 K, x1 = 0.8733	3.26
298.15 K, x1 = 0.9221	3.361
298.15 K, x1 = 0.9643	3.363
313.15 K, x1 = 0.2695	1.138
313.15 K, x1 = 0.4572	1.383
313.15 K, x1 = 0.58	1.621
313.15 K, x1 = 0.6792	1.846
313.15 K, x1 = 0.7583	2.039
313.15 K, x1 = 0.8242	2.193
313.15 K, x1 = 0.8775	2.294
313.15 K, x1 = 0.9226	2.338
313.15 K, x1 = 0.9638	2.362

OCCCO + C1COCCO1
viscosity [mPa·s], 100 kPa
Details	x2 = 0.0996	x2 = 0.2019	x2 = 0.2972	x2 = 0.3986	x2 = 0.4989	x2 = 0.5998	x2 = 0.6951	x2 = 0.8062	x2 = 0.9159
293.15 K	38.51	26.36	17.15	10.05	5.655	3.887	2.715	2.018	1.288
298.15 K	29.32	20.14	12.96	8.427	4.847	3.375	2.402	1.806	1.145
303.15 K	23.39	15.44	10.21	6.477	4.086	2.968	2.14	1.632	1.053

OCCCO + CC#N
viscosity [mPa·s], 100 kPa
Details	x2 = 0.1027	x2 = 0.2001	x2 = 0.3048	x2 = 0.4057	x2 = 0.5001	x2 = 0.6001	x2 = 0.6993	x2 = 0.8002	x2 = 0.8956
293.15 K	31.4	19.6	11.4	6.84	4.12	2.59	1.59	0.92	0.58
298.15 K	24.7	14.5	8.12	4.69	2.89	1.91	1.23	0.73	0.47
303.15 K	19.4	11.2	5.78	3.33	2.21	1.37	0.89	0.58	0.39

NC=O + CC(=O)N(C)C
viscosity [mPa·s], 101 kPa
Details	298.15 K	308.15 K	318.15 K
x2 = 0.035	3.217	2.532	2.077
x2 = 0.07	3.457	2.677	2.18
x2 = 0.111	3.656	2.847	2.286
x2 = 0.15	3.822	2.95	2.357
x2 = 0.2053	3.966	3.037	2.416
x2 = 0.2414	3.971	3.057	2.42
x2 = 0.3009	3.932	3.027	2.389
x2 = 0.3563	3.789	2.92	2.31
x2 = 0.4177	3.537	2.741	2.16
x2 = 0.458	3.338	2.594	2.076
x2 = 0.5011	3.094	2.43	1.953
x2 = 0.5474	2.826	2.235	1.81
x2 = 0.5912	–	2.028	–
x2 = 0.5972	2.53	–	1.65
x2 = 0.65	2.251	1.812	1.505
x2 = 0.7092	1.916	1.579	1.316
x2 = 0.75	1.72	1.441	1.205
x2 = 0.7948	1.54	1.289	1.096
x2 = 0.891	1.21	1.035	0.901

— the CheMixHub viscosity set
